Test results reported in patent publication US20130096160A1, “ARYLTHIAZOLYL PIPERIDINES AND RELATED COMPOUNDS AS MODULATORS OF SURVIVAL MOTOR NEURON (SMN) PROTEIN PRODUCTION” (Secretary, Department of Health and Human Services, priority 2010, published 2013).

What was measured:
[1] = tested on: SMN2-luciferase reporter; assay: SMN2-luciferase reporter qHTS assay; format: cell-based, human; design: key to Curve Class: A curve class of 1.1 is a full agonist/antagonist; a curve class of 4 indicates the compound is inactive; details: for Curve Class: agonist/antagonist character of the concentration-response, lower values = more significant concentration-response; for Increased SMN2 activity: percent increase (or decrease) in SMN2 levels compared to control in which no test compound is added
In short: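 SMN2 exon-7 splicing firefly-luciferase reporter cell line, ~2000 cells/well in phenol-red-free DMEM with 10% serum, allowed to adhere 10–12 h, then exposed to compounds for 2 days at 37 C, 5% CO2. Seven-point five-fold dilution series (e.g. 50 μM to 3.2 nM), OneGlo luminescence read, curves fitted to Hill equation.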

[2] = mouse, microsomes, 1 h, 1 μM, pH 7.4
Procedure: The test agent is incubated at 1 μM in duplicate with mouse microsomes at 37° C. for 60 min. The reaction contains 0.3 mg/mL microsomal protein in 100 mM potassium phosphate, 2 mM NADPH, 3 mM MgCl2, pH 7.4. A control is run for each test agent omitting NADPH to detect NADPH-free degradation. At indicated times, an aliquot is removed from each experimental and control reaction and mixed with an equal volume of ice-cold Stop Solution (0.3% acetic acid in acetonitrile containing haloperidol, diclofenac, or other internal standard). Stopped reactions are incubated at least ten minutes at −20° C., and an additional volume of water is added.
The samples are centrifuged to remove precipitated protein, and the supernatants are analyzed by LC/MS/MS, as described above, to quantitate the remaining parent. Data are reported as % remaining by dividing by the time zero concentration value.

| Compound | Curve Class [1] | Increased SMN2 activity [1] [%] | Minus NADPH Parent remaining 1st [2] [%] | Minus NADPH Parent remaining 2nd [2] [%] | Minus NADPH Parent remaining mean [2] [%] | Plus NADPH Parent remaining 1st [2] [%] | Plus NADPH Parent remaining 2nd [2] [%] | Plus NADPH Parent remaining mean [2] [%] |
| --- | --- | --- | --- | --- | --- | --- | --- | --- |
| NC(=O)C1CCN(c2nc(-c3ccc(Br)cc3)cs2)CC1 [Example 23, 1-(4-(4-Bromophenyl)Thiazol-2-yl)Piperidine-4-Carboxamide] | 1.1 | 267.7 | 68 | 51 | 59 | 55 | 43 | 49 |
| NC(=O)C1CCN(c2nc(-c3ccc4c(c3)OCCO4)cs2)CC1 [Example 48, 1-(4-(2,3-Dihydrobenzo[B][1,4]Dioxin-6-yl)Thiazol-2-yl)Piperidine-4-Carboxamide] | 1.1 | 459 | 16 | 15 | 16 | 1 | 0 | 1 |
| NC(=O)C1CCN(c2cc(-c3ccc4c(c3)OCCCO4)ncn2)CC1 [Example 142, 1-(6-(3,4-Dihydro-2H-Benzo[B][1,4]Dioxepin-7-yl)Pyrimidin-4-yl)Piperidine-4-Carboxamide] | 1.1 | 211.1 | – | – | – | – | – | – |
| CN(C)c1cccc(-c2cc(N3CCC(C(N)=O)CC3)ncn2)c1 [Example 143, 1-(6-(3-(Dimethylamino)Phenyl)Pyrimidin-4-yl)Piperidine-4-Carboxamide] | 2.1 | 81.27 | – | – | – | – | – | – |
| NC(=O)C1CCN(c2ncnc(-c3ccc4c(c3)OCCCO4)n2)CC1 [Example 144, 1-(4-(3,4-Dihydro-2H-Benzo[B][1,4]Dioxepin-7-yl)-1,3,5-Triazin-2-yl)Piperidine-4-Carboxamide] | 1.1 | 186.2 | – | – | – | – | – | – |
| CN(C)c1cccc(-c2ncnc(N3CCC(C(N)=O)CC3)n2)c1 [Example 145, 1-(4-(3-(Dimethylamino)Phenyl)-1,3,5-Triazin-2-yl)Piperidine-4-Carboxamide] | 1.1 | 199.9 | – | – | – | – | – | – |
| CCOC(=O)C1CCN(c2ncc(-c3ccc4c(c3)OCCCO4)s2)CC1 [Example 146, Ethyl 1-(5-(3,4-Dihydro-2H-Benzo[B][1,4]Dioxepin-7-yl)Thiazol-2-yl)Piperidine-4-Carboxylate] | 1.1 | 319.6 | – | – | – | – | – | – |
| CN(C)c1cccc(-c2nc(N3CCC(C(N)=O)CC3)ncc2F)c1 [Example 149, 1-(4-(3-(Dimethylamino)Phenyl)-5-Fluoropyrimidin-2-yl)Piperidine-4-Carboxamide] | 1.1 | 373.2 | – | – | – | – | – | – |
| COc1ccc(-c2cnc(N3CCC(C(N)=O)CC3)s2)cc1OC [Example 150, 1-(5-(3,4-Dimethoxyphenyl)Thiazol-2-yl)Piperidine-4-Carboxamide] | 1.1 | 209.7 | – | – | – | – | – | – |
| CN(C)c1cccc(-c2ncc(F)c(N3CCC(C(N)=O)CC3)n2)c1 [Example 152, 1-(2-(3-(Dimethylamino)Phenyl)-5-Fluoropyrimidin-4-yl)Piperidine-4-Carboxamide] | 1.1 | 141.8 | – | – | – | – | – | – |
| NC(=O)C1CCN(c2ncc(-c3ccc4c(c3)OC(F)(F)O4)s2)CC1 [Example 153, 1-(5-(2,2-Difluorobenzo[D][1,3]Dioxol-5-yl)Thiazol-2-yl)Piperidine-4-Carboxamide] | 1.1 | 598.4 | – | – | – | – | – | – |
